# Patent publication US8101550B2, “Anthranilic acid diamide derivative with hetero-aromatic and hetero-cyclic substituents” (Bayer Cropscience AG, priority 2006, dated 2012)
# Assay: log P determination by HPLC on reverse-phase column (EEC Directive 79/831 Annex V.A8)
# Format: physicochemical
# Settings: HPLC on reverse-phase column
# Experimental: The log P values stated in the foregoing tables and preparation examples are determined in accordance with EEC Directive 79/831 Annex V.A8 by means of HPLC (High Performance Liquid Chromatography) on a reverse-phase column (C 18). Temperature: 43° C.
# The determination by LC-MS in the acidic range takes place at a pH of 2.7 using 0.1% aqueous formic acid and acetonitrile (containing 0.1% formic acid) as eluents; linear gradient from 10% acetonitrile to 95% acetonitrile.
# Calibration is with unbranched alkan-2-ones (having 3 to 16 carbon atoms) of known log P value (log P values determined from the retention times by linear interpolation between two successive alkanones).
row,Structure (SMILES),logP
1,Cc1cc(Br)cc(C(=O)NC2CC2)c1NC(=O)c1cc(Cn2cc(Br)c(C(F)(F)F)n2)nn1-c1ncccc1Cl [I-1-93],3.69
2,Cc1cc(Cl)cc(C(N)=O)c1NC(=O)c1cc(Cn2nnn(-c3cc(C(F)(F)F)cc(C(F)(F)F)c3)c2=O)nn1-c1ncccc1Cl [I-1-94],3.85
3,Cc1cc(Cl)cc(C(=O)NCC#N)c1NC(=O)c1cc(Cn2nnn(-c3cc(C(F)(F)F)cc(C(F)(F)F)c3)c2=O)nn1-c1ncccc1Cl [I-1-95],4.01
4,CNC(=O)c1cc(Cl)cc(C)c1NC(=O)c1cc(Cn2nnn(-c3cc(Cl)cc(Cl)c3)c2=O)nn1-c1ncccc1Cl [I-1-96],3.90
5,Cc1cc(Br)cc(C(=O)NCC#N)c1NC(=O)c1cc(Cn2cc(Br)c(C(F)(F)F)n2)nn1-c1ncccc1Cl [I-1-97],3.45
6,CSCC(C)(C)NC(=O)c1cc(Br)cc(C)c1NC(=O)c1cc(Cn2cc(Br)c(C(F)(F)F)n2)nn1-c1ncccc1Cl [I-1-98],4.47
7,CSCC(C)NC(=O)c1cc(Br)cc(C)c1NC(=O)c1cc(Cn2cc(Br)c(C(F)(F)F)n2)nn1-c1ncccc1Cl (centres unmarked) [I-1-99],4.10
8,Cc1cc(Br)cc(C(N)=O)c1NC(=O)c1cc(Cn2cc(Br)c(C(F)(F)F)n2)nn1-c1ncccc1Cl [I-1-100],3.24
9,Cc1cc(Br)cc(C(=O)NC(C)CS(C)(=O)=O)c1NC(=O)c1cc(Cn2cc(Br)c(C(F)(F)F)n2)nn1-c1ncccc1Cl (centres unmarked) [I-1-101],3.32
10,CNC(=O)c1cc(Cl)cc(C)c1NC(=O)c1cc(Cn2ccc(Cl)n2)nn1-c1ncccc1Cl [I-1-102],2.51
11,Cc1cc(Cl)cc(C(=O)NC(C)C)c1NC(=O)c1cc(Cn2ccc(Cl)n2)nn1-c1ncccc1Cl [I-1-103],2.96
12,CNC(=O)c1cc(Cl)cc(C)c1NC(=O)c1cc(Cn2nnc(-c3ccc(C(F)(F)F)cc3)n2)nn1-c1ncccc1Cl [I-1-104],3.79
13,Cc1cc(Cl)cc(C(=O)NC(C)C)c1NC(=O)c1cc(Cn2nnc(-c3ccc(C(F)(F)F)cc3)n2)nn1-c1ncccc1Cl [I-1-105],4.14
14,Cc1cc(Cl)cc(C(N)=O)c1NC(=O)c1cc(Cn2nnc(-c3ccc(C(F)(F)F)cc3)n2)nn1-c1ncccc1Cl [I-1-106],3.46
15,Cc1cc(Cl)cc(C(=O)NCC#N)c1NC(=O)c1cc(Cn2nnc(-c3ccc(C(F)(F)F)cc3)n2)nn1-c1ncccc1Cl [I-1-107],3.65
16,CNC(=O)c1cc(Cl)cc(C)c1NC(=O)c1cc(Cn2nnn(-c3ccc(C(F)(F)F)c(Cl)c3)c2=O)nn1-c1ncccc1Cl [I-1-108],3.90
17,CNC(=O)c1cc(Cl)cc(C)c1NC(=O)c1cc(Cn2nnn(-c3ccc(C(F)(F)F)cc3Cl)c2=O)nn1-c1ncccc1Cl [I-1-109],3.51
18,CNC(=O)c1cc(Cl)cc(C)c1NC(=O)c1cc(Cn2cc(I)c(I)n2)nn1-c1ncccc1Cl [I-1-110],3.13
19,Cc1cc(Cl)cc(C(=O)NC(C)C)c1NC(=O)c1cc(Cn2cc(I)c(I)n2)nn1-c1ncccc1Cl [I-1-111],3.58
20,CNC(=O)c1cc(Cl)cc(C)c1NC(=O)c1cc(Cn2nnc(-c3cc(C(F)(F)F)cc(C(F)(F)F)c3)n2)nn1-c1ncccc1Cl [I-1-112],4.28
21,Cc1cc(Br)cc(C(=O)NC(C)C[S+](C)[O-])c1NC(=O)c1cc(Cn2cc(Br)c(C(F)(F)F)n2)nn1-c1ncccc1Cl (centres unmarked) [I-1-113],2.97
22,Cc1cc(Cl)cc(C(N)=O)c1NC(=O)c1cc(Cn2nnc(-c3cc(C(F)(F)F)cc(C(F)(F)F)c3)n2)nn1-c1ncccc1Cl [I-1-114],4.03
23,Cc1cc(Cl)cc(C(=O)NC(C)C)c1NC(=O)c1cc(Cn2nnn(C)c2=O)nn1-c1ncccc1Cl [I-1-115],2.31
24,CNC(=O)c1cc(Cl)cc(C)c1NC(=O)c1cc(Cn2nc(C(F)(F)F)n(C)c2=O)nn1-c1ncccc1Cl [I-1-116],2.44
25,Cc1cc(Cl)cc(C(=O)NC(C)C)c1NC(=O)c1cc(Cn2nc(C(F)(F)F)n(C)c2=O)nn1-c1ncccc1Cl [I-1-117],2.85
26,CNC(=O)c1cc(Cl)cc(C)c1NC(=O)c1cc(Cn2nc(C(F)(F)F)n(-c3ccccc3)c2=O)nn1-c1ncccc1Cl [I-1-118],3.10
